From PubChem BioAssay (NCI)
“And” between values parts separate entries of the source, which are not always exact repeats. Identical values can stand only once.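 Where inhibition never reached the appropriate level, the endpoint shown equals the highest concentration tested. Otherwise, values were interpolated linearly from a five-concentration, 48-hour dose response in 96-well plates. GI50 marks 50% less growth. TGI is the concentration that stops growth completely.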

Tests used:
Test in all cases: inhibition of tumour cell growth, NCI panel, 48 h
BT-549 breast = test system: BT-549 breast
CAKI-1 renal = test system: CAKI-1 renal
HCT-15 colon = test system: HCT-15 colon
LOX IMVI melanoma = test system: LOX IMVI melanoma
MCF7 breast = test system: MCF7 breast
MDA-N = test system: MDA-N
NCI-H460 lung = test system: NCI-H460 lung
RPMI-8226 leukemia = test system: RPMI-8226 leukemia
RXF 393 renal = test system: RXF 393 renal
SK-MEL-5 melanoma = test system: SK-MEL-5 melanoma
SNB-75 CNS = test system: SNB-75 CNS

| SMILES | TGI (BT-549 breast) | TGI (CAKI-1 renal) | TGI (HCT-15 colon) | TGI (LOX IMVI melanoma) | TGI (MCF7 breast) | TGI (MDA-N) | TGI (NCI-H460 lung) | TGI (RPMI-8226 leukemia) | TGI (RXF 393 renal) | TGI (SK-MEL-5 melanoma) | TGI (SNB-75 CNS) | GI50 (BT-549 breast) | GI50 (CAKI-1 renal) | GI50 (HCT-15 colon) | GI50 (MCF7 breast) | GI50 (NCI-H460 lung) | GI50 (RXF 393 renal) | GI50 (SNB-75 CNS) |
| --- | --- | --- | --- | --- | --- | --- | --- | --- | --- | --- | --- | --- | --- | --- | --- | --- | --- | --- |
| Cc1ccc(S(=O)(=O)NNC(=O)c2cc(C)ccc2NC(=O)C23CC4CC(CC(C4)C2)C3)cc1 | > 100 µM | > 100 µM | 66.8 µM | > 100 µM | > 100 µM | > 100 µM | > 100 µM | > 100 µM | 78 µM | > 100 µM | – | – | – | – | – | – | – | – |
| COc1cccc(CC(C)NCC(O)c2ccc(O)c(O)c2)c1 (stereo not given) | > 100 µM | > 100 µM | > 100 µM | > 100 µM | > 100 µM | – | > 100 µM | > 100 µM | > 100 µM | > 100 µM | > 100 µM | – | – | – | – | – | – | – |
| O=C1CCC2(CCO1)OCCO2 | > 100 µM | > 100 µM | > 100 µM | > 100 µM | > 100 µM | > 100 µM | > 100 µM | – | > 100 µM | > 100 µM | > 100 µM | – | – | – | – | – | – | – |
| N#CC(C#N)=C1C(C#N)=C(N)NC12OCCO2 | > 100 µM | > 100 µM | > 100 µM | > 100 µM | > 100 µM | > 100 µM | > 100 µM | > 100 µM | > 100 µM | > 100 µM | – | – | – | – | – | – | – | – |
| CC1OC2=N[C@@H]1C(=O)N[C@@H](C(C)C)C1=N[C@H](C(=O)N[C@@H](C(C)C)C3=N[C@H](C(=O)N[C@@H](C(C)C)C4=N[C@H](C(=O)N[C@H]2C(C)C)C(C)O4)C(C)O3)C(C)O1 (stereo not given in full) | – | > 10 µM | > 10 µM | > 10 µM | > 10 µM | > 10 µM | > 10 µM | > 10 µM | > 10 µM | > 10 µM | > 10 µM | – | – | – | – | – | – | – |
| COc1cc2c(cc1OCCCC(=O)Nc1cc(C(=O)Nc3cc(C(=O)Nc4cc(C(=O)NCCCN(C)C)n(C)n4)n(C)n3)n(C)n1)N=CC1CCCN1C2=O (stereo not given) | 37.5 µM | 61.5 µM | > 100 µM | > 100 µM | > 100 µM | – | > 100 µM | > 100 µM | 43.2 µM | 47.4 µM | 52.6 µM | – | – | – | – | – | – | – |
| CCOC(=O)c1c(N2CCCC2)ncn(-c2ccccc2)c1=S | > 100 µM | – | > 100 µM | > 100 µM | – | > 100 µM | > 100 µM | > 100 µM | > 100 µM | > 100 µM | > 100 µM | – | – | – | – | – | – | – |
| Cc1cc(/C=C\c2ccc3ccccc3[n+]2C)c(O)c2ncccc12 | 4.63 µM | 3.51 µM | 17.8 µM | – | – | – | 1.82 µM | – | 6.03 µM | – | 7.24 µM | 0.26 µM | 0.816 µM | 1.52 µM | 0.283 µM | 0.224 µM | 1.55 µM | 1.83 µM |
| O=C(NCc1cccc(C(F)(F)F)c1)c1cc2sccc2nc1C(F)(F)F | > 100 µM | > 100 µM | – | – | > 100 µM | > 100 µM | – | > 100 µM | > 100 µM | > 100 µM | – | – | – | – | – | – | – | – |
| Nc1ncnc2c1ncn2C1CCC(COS(N)(=O)=O)C1 (stereo not given) | – | > 100 µM | > 100 µM | > 100 µM | > 100 µM | > 100 µM | > 100 µM | > 100 µM | > 100 µM | > 100 µM | > 100 µM | – | – | – | – | – | – | – |
| [Cl][Pt+2][Cl].[NH-]C1CCCCC1[NH-] (stereo not given) | – | > 53 µM and > 100 µM and 18.1 µM | 35.3 µM and > 100 µM and 37.9 µM | > 59.3 µM | > 37 µM and > 100 µM and 10.1 µM | – | 17.9 µM and 36.1 µM and 14 µM | > 50.5 µM | > 100 µM | 33 µM and 19.5 µM and 4.39 µM | 97.6 µM and > 77.9 µM and 71 µM | – | 1.44 µM and 3.52 µM and 0.769 µM | 5.58 µM and 4.7 µM and 0.677 µM | – | 1.94 µM and 0.903 µM and 0.287 µM | > 57.9 µM and 66.8 µM and > 28.6 µM | 25.1 µM and 19.6 µM and 3.41 µM |
| O=C(CCN1CCCC1)Nc1ccc2sc3ccccc3c(=O)c2n1 | 19.2 µM | 16.7 µM | 16.8 µM | – | 21.3 µM | 20.1 µM | – | 21.9 µM | – | 16.4 µM | 18.2 µM | – | – | – | – | – | – | – |
| C/C(=N\NC(=S)N1CCCCC1)c1cccc(C)n1 | 5.5 µM | 12.4 µM | 21.6 µM | 11.3 µM | – | 20.3 µM | 0.334 µM | > 100 µM | 14.4 µM | 0.449 µM | 6.19 µM | – | – | – | – | – | – | – |
| Cc1ccc(C(C)(C)C[P+](C)(c2ccccc2)c2ccccc2)cc1 | – | > 69.2 µM | > 100 µM | 37.8 µM | > 81.2 µM | – | > 100 µM | 6.7 µM | > 94.1 µM | 12.7 µM | 50.8 µM | – | – | – | – | – | – | – |
| C[C@@H](O)C(=O)N1[C@@H]2CC3CC[C@]2(CS1(=O)=O)C3(C)C | > 100 µM | > 100 µM | > 100 µM | > 100 µM | > 100 µM | – | > 100 µM | > 100 µM | > 100 µM | > 100 µM | > 100 µM | – | – | – | – | – | – | – |
| CC1(C)OCC(C(O)C2OC(C)(C)OC2C=O)O1 (stereo not given) | – | – | > 100 µM | > 100 µM | > 100 µM | > 100 µM | – | > 100 µM | – | > 100 µM | > 100 µM | – | – | – | – | – | – | – |
| O=[N+]([O-])c1ccc(S[C@@H]2[C@H]3c4c(-c5ccccc5)[nH]c(-c5ccccc5)c4[C@@H]2C[C@H]3Cl)cc1 | 9.78 µM | > 100 µM | 6.84 µM | 15.4 µM | 16.5 µM | 18.6 µM | 12.9 µM | – | 4.3 µM | 23.5 µM | 8.29 µM | – | – | – | – | – | – | – |
| CC(=O)Nc1ccc(C(=O)NN2C(=O)C(Cl)C2c2ccc([N+](=O)[O-])cc2)cc1 (stereo not given) | – | > 100 µM | > 100 µM | > 100 µM | – | – | > 100 µM | – | > 100 µM | > 100 µM | > 100 µM | – | – | – | – | – | – | – |
| CC(=O)OCC1OC(n2c3c(c(-c4cccc5ccccc45)c(C#N)c2=S)CCCC3)C(OC(C)=O)C(OC(C)=O)C1OC(C)=O (stereo not given) | – | – | > 100 µM | > 100 µM | > 100 µM | > 100 µM | > 100 µM | – | > 100 µM | > 100 µM | – | – | – | – | – | – | – | – |
| C=C(CCC(C)C1CCC2C3=C(C(=O)CC21C)C1(C)CCC(=O)[C@@H](C)C1CC3=O)C(C)C(=O)O (stereo not given in full) | > 100 µM | 72.3 µM | > 100 µM | 33.8 µM | > 100 µM | – | > 100 µM | – | 57.4 µM | > 100 µM | > 100 µM | – | – | – | – | – | – | – |
| CCNc1ccc2c(c1)Cc1ccccc1-2 | 75.5 µM | > 100 µM | > 100 µM | > 100 µM | > 100 µM | – | > 100 µM | > 100 µM | > 100 µM | > 100 µM | > 100 µM | – | – | – | – | – | – | – |
| COC1OC(Cc2nnc(C)o2)C(OCc2ccccc2)C(OCc2ccccc2)C1OCc1ccccc1 (stereo not given) | 83.1 µM | > 100 µM | > 100 µM | 40.3 µM | 49.7 µM | – | 87 µM | > 100 µM | 48.2 µM | 30 µM | > 100 µM | – | – | – | – | – | – | – |
